Test results reported in ChEMBL document CHEMBL5365394, “Design, synthesis and biological evaluation of novel spiro-quinazolinone derivatives as chitin synthase inhibitors and antifungal agents” (Eur J Med Chem, 2023).
Converted amounts (≈) assume the structure as drawn.

Experiments:
Candida tropicalis = test: Inhibition of Candida tropicalis ATCC 750 chitin synthase using […] as substrate at 300 ug/ml incubated for 1 hr by absorbance based assay relative to control; details: dose 300.0 µg/ml
[1] = Inhibition of Candida tropicalis ATCC 750 chitin synthase using UDP-GlcNAc as substrate incubated for 1 hr by absorbance based assay
Candida albicans [2] = test: Antifungal activity against Candida albicans ATCC 76615 assessed as fungal growth inhibition incubated for 24 hrs by two-fold serial dilution method; assay type: functional
Aspergillus flavus [3] = test: Antifungal activity against Aspergillus flavus ATCC 16870 assessed as fungal growth inhibition incubated for 24 hrs by two-fold serial dilution method; assay type: functional
Aspergillus fumigatus [4] = test: Antifungal activity against Aspergillus fumigatus GIMCC 3.19 assessed as fungal growth inhibition incubated for 24 hrs by two-fold serial dilution method; assay type: functional
Cryptococcus neoformans [5] = test: Antifungal activity against Cryptococcus neoformans ATCC 32719 assessed as fungal growth inhibition incubated for 24 hrs by two-fold serial dilution method; assay type: functional
Aspergillus flavus [6] = test: Antifungal activity against Aspergillus flavus ATCC 16870 assessed as inhibition of cell wall synthesis incubated for 24 hrs in presence of sorbitol; assay type: functional
Candida albicans [7] = test: Antifungal activity against Candida albicans ATCC 76615 assessed as inhibition of cell wall synthesis incubated for 24 hrs in presence of sorbitol; assay type: functional
Aspergillus fumigatus [8] = test: Antifungal activity against Aspergillus fumigatus GIMCC 3.19 assessed as inhibition of cell wall synthesis incubated for 24 hrs in presence of sorbitol; assay type: functional
Cryptococcus neoformans [9] = test: Antifungal activity against Cryptococcus neoformans ATCC 32719 assessed as inhibition of cell wall synthesis incubated for 24 hrs in presence of sorbitol; assay type: functional
Candida albicans [10] = test: Antifungal activity against Fluconazole-resistant Candida albicans ATCC 76615R assessed as fungal growth inhibition; assay type: functional
Aspergillus flavus [11] = test: Antifungal activity against Fluconazole-resistant Aspergillus flavus ATCC 16870R assessed as fungal growth inhibition; assay type: functional
Aspergillus fumigatus [12] = test: Antifungal activity against Fluconazole-resistant Aspergillus fumigatus GIMCC 3.19R assessed as fungal growth inhibition; assay type: functional
Cryptococcus neoformans [13] = test: Antifungal activity against Fluconazole-resistant Cryptococcus neoformans ATCC 32719R assessed as fungal growth inhibition; assay type: functional
Candida albicans [14] = test: Antifungal activity against Micafungin-resistant Candida albicans ATCC 76615R assessed as fungal growth inhibition; assay type: functional
Candida albicans [15] = test: Synergistic antifungal activity against Candida albicans ATCC 76615 assessed as fluconazole MIC incubated for 24 hrs in by checkerboard broth microdilution method; assay type: functional
Aspergillus fumigatus [16] = test: Synergistic antifungal activity against Aspergillus fumigatus GIMCC 3.19 assessed as polyoxin B MIC incubated for 24 hrs by checkerboard broth microdilution method; assay type: functional
Aspergillus flavus [17] = test: Synergistic antifungal activity against Aspergillus flavus ATCC 16870 assessed as fluconazole MIC incubated for 24 hrs in by checkerboard broth microdilution method; assay type: functional
Aspergillus fumigatus [18] = test: Synergistic antifungal activity against Aspergillus fumigatus GIMCC 3.19 assessed as fluconazole MIC incubated for 24 hrs in by checkerboard broth microdilution method; assay type: functional
Cryptococcus neoformans [19] = test: Synergistic antifungal activity against Cryptococcus neoformans ATCC 32719 assessed as fluconazole MIC incubated for 24 hrs in by checkerboard broth microdilution method; assay type: functional
Candida albicans [20] = test: Synergistic antifungal activity against Candida albicans ATCC 76615 assessed as polyoxin B MIC incubated for 24 hrs by checkerboard broth microdilution method; assay type: functional
Aspergillus flavus [21] = test: Synergistic antifungal activity against Aspergillus flavus ATCC 16870 assessed as polyoxin B MIC incubated for 24 hrs by checkerboard broth microdilution method; assay type: functional
Cryptococcus neoformans [22] = test: Synergistic antifungal activity against Cryptococcus neoformans ATCC 32719 assessed as polyoxin B MIC incubated for 24 hrs in by checkerboard broth microdilution method; assay type: functional
Candida albicans [23] = test: Additive antifungal activity against Candida albicans ATCC 76615 assessed as fractional inhibitory concentration index incubated for 24 hrs in presence of fluconazole by checkerboard broth microdilution method; assay type: functional
Cryptococcus neoformans [24] = test: Additive antifungal activity against Cryptococcus neoformans ATCC 32719 assessed as fractional inhibitory concentration index incubated for 24 hrs in presence of fluconazole by checkerboard broth microdilution method; assay type: functional
Aspergillus fumigatus [25] = test: Synergistic antifungal activity against Aspergillus fumigatus GIMCC 3.19 assessed as fractional inhibitory concentration index incubated for 24 hrs in presence of fluconazole by checkerboard broth microdilution method; assay type: functional
Candida albicans [26] = test: Synergistic antifungal activity against Candida albicans ATCC 76615 assessed as fractional inhibitory concentration index incubated for 24 hrs in presence of polyoxin B by checkerboard broth microdilution method; assay type: functional
Aspergillus flavus [27] = test: Additive antifungal activity against Aspergillus flavus ATCC 16870 assessed as fractional inhibitory concentration index incubated for 24 hrs in presence of polyoxin B by checkerboard broth microdilution method; assay type: functional
Aspergillus fumigatus [28] = test: Synergistic antifungal activity against Aspergillus fumigatus GIMCC 3.19 assessed as fractional inhibitory concentration index incubated for 24 hrs in presence of polyoxin B by checkerboard broth microdilution method; assay type: functional
Cryptococcus neoformans [29] = test: Additive antifungal activity against Cryptococcus neoformans ATCC 32719 assessed as fractional inhibitory concentration index incubated for 24 hrs in presence of polyoxin B by checkerboard broth microdilution method; assay type: functional
Candida albicans [30] = test: Antifungal activity against Candida albicans ATCC 76615 assessed as inhibition of cell wall synthesis incubated for 24 hrs in absence of sorbitol; assay type: functional
Aspergillus flavus [31] = test: Antifungal activity against Aspergillus flavus ATCC 16870 assessed as inhibition of cell wall synthesis incubated for 24 hrs in absence of sorbitol; assay type: functional
Aspergillus fumigatus [32] = test: Antifungal activity against Aspergillus fumigatus GIMCC 3.19 assessed as inhibition of cell wall synthesis incubated for 24 hrs in absence of sorbitol; assay type: functional
Cryptococcus neoformans [33] = test: Antifungal activity against Cryptococcus neoformans ATCC 32719 assessed as inhibition of cell wall synthesis incubated for 24 hrs in absence of sorbitol; assay type: functional
Aspergillus flavus [34] = test: Synergistic antifungal activity against Aspergillus flavus ATCC 16870 assessed as fractional inhibitory concentration index incubated for 24 hrs in presence of fluconazole by checkerboard broth microdilution method; assay type: functional
Aspergillus flavus [35] = test: Additive antifungal activity against Aspergillus flavus ATCC 16870 assessed as fractional inhibitory concentration index incubated for 24 hrs in presence of fluconazole by checkerboard broth microdilution method; assay type: functional
Candida albicans [36] = test: Additive antifungal activity against Candida albicans ATCC 76615 assessed as fractional inhibitory concentration index incubated for 24 hrs in presence of polyoxin B by checkerboard broth microdilution method; assay type: functional
Aspergillus fumigatus [37] = test: Additive antifungal activity against Aspergillus fumigatus GIMCC 3.19 assessed as fractional inhibitory concentration index incubated for 24 hrs in presence of polyoxin B by checkerboard broth microdilution method; assay type: functional

| SMILES | inhibition (Candida tropicalis) [%] | IC50 [1] [µM] | MIC (Candida albicans [2]) [µg/mL] | MIC (Aspergillus flavus [3]) [µg/mL] | MIC (Aspergillus fumigatus [4]) [µg/mL] | MIC (Cryptococcus neoformans [5]) [µg/mL] | MIC (Aspergillus flavus [6]) [µg/mL] | MIC (Candida albicans [7]) [µg/mL] | MIC (Aspergillus fumigatus [8]) [µg/mL] | MIC (Cryptococcus neoformans [9]) [µg/mL] | MIC (Candida albicans [10]) [µg/mL] | MIC (Aspergillus flavus [11]) [µg/mL] | MIC (Aspergillus fumigatus [12]) [µg/mL] | MIC (Cryptococcus neoformans [13]) [µg/mL] | MIC (Candida albicans [14]) [µg/mL] | MIC (Candida albicans [15]) [µg/mL] | MIC (Aspergillus fumigatus [16]) [µg/mL] | MIC (Aspergillus flavus [17]) [µg/mL] | MIC (Aspergillus fumigatus [18]) [µg/mL] | MIC (Cryptococcus neoformans [19]) [µg/mL] | also measured |
| --- | --- | --- | --- | --- | --- | --- | --- | --- | --- | --- | --- | --- | --- | --- | --- | --- | --- | --- | --- | --- | --- |
| O=C(/C=C/C(=O)Nc1ccccc1[N+](=O)[O-])Nc1ccc2c(c1)C(=O)NC1(CCSC1)N2 (stereo not given) | 81.9 | 102 | 1 (≈ 2.21 µM) | 1 (≈ 2.21 µM) | 1 (≈ 2.21 µM) | 4 (≈ 8.82 µM) | 128 | 128 | 64 | 128 | 8 (≈ 17.6 µM) | 16 (≈ 35.3 µM) | 8 (≈ 17.6 µM) | 8 (≈ 17.6 µM) | 8 (≈ 17.6 µM) | 2 | 2 | 2 | 1 | 0.5 | MIC (Candida albicans [20]): 4 µg/mL; MIC (Aspergillus flavus [21]): 16 µg/mL; MIC (Cryptococcus neoformans [22]): 16 µg/mL; fractional inhibitory concentration index (FICI) (Candida albicans [23]): 1.125; fractional inhibitory concentration index (FICI) (Cryptococcus neoformans [24]): 1.125; fractional inhibitory concentration index (FICI) (Aspergillus fumigatus [25]): 0.375; fractional inhibitory concentration index (FICI) (Candida albicans [26]): 0.75; fractional inhibitory concentration index (FICI) (Aspergillus flavus [27]): 1.125; fractional inhibitory concentration index (FICI) (Aspergillus fumigatus [28]): 0.625; fractional inhibitory concentration index (FICI) (Cryptococcus neoformans [29]): 1.5; MIC (Candida albicans [30]): 8 µg/mL (≈ 17.6 µM); MIC (Aspergillus flavus [31]): 8 µg/mL (≈ 17.6 µM); MIC (Aspergillus fumigatus [32]): 4 µg/mL (≈ 8.82 µM); MIC (Cryptococcus neoformans [33]): 8 µg/mL (≈ 17.6 µM); fractional inhibitory concentration index (FICI) (Aspergillus flavus [34]): 1 |
| O=C(/C=C/C(=O)Nc1ccc(Cl)cc1Cl)Nc1ccc2c(c1)C(=O)NC1(CCSC1)N2 (stereo not given) | 73.9 | 137 | 8 (≈ 16.8 µM) | 8 (≈ 16.8 µM) | 8 (≈ 16.8 µM) | 8 (≈ 16.8 µM) | 256 | 256 | 128 | 128 | 32 (≈ 67 µM) | 32 (≈ 67 µM) | 16 (≈ 33.5 µM) | 32 (≈ 67 µM) | 16 (≈ 33.5 µM) | 2 | 8 | 4 | 2 | 2 | MIC (Candida albicans [20]): 2 µg/mL; MIC (Aspergillus flavus [21]): 16 µg/mL; MIC (Cryptococcus neoformans [22]): 16 µg/mL; fractional inhibitory concentration index (FICI) (Candida albicans [23]): 1.5; fractional inhibitory concentration index (FICI) (Aspergillus flavus [35]): 1.25; fractional inhibitory concentration index (FICI) (Cryptococcus neoformans [24]): 1.5; fractional inhibitory concentration index (FICI) (Aspergillus fumigatus [25]): 0.75; fractional inhibitory concentration index (FICI) (Aspergillus flavus [27]): 2; fractional inhibitory concentration index (FICI) (Cryptococcus neoformans [29]): 1.5; MIC (Candida albicans [30]): 16 µg/mL (≈ 33.5 µM); MIC (Aspergillus flavus [31]): 32 µg/mL (≈ 67 µM); MIC (Aspergillus fumigatus [32]): 16 µg/mL (≈ 33.5 µM); MIC (Cryptococcus neoformans [33]): 16 µg/mL (≈ 33.5 µM); fractional inhibitory concentration index (FICI) (Candida albicans [36]): 1.25; fractional inhibitory concentration index (FICI) (Aspergillus fumigatus [37]): 1.5 |
